Measurements published in US20230085307A1, “PYRIDAZINONE COMPOUND AND HERBICIDE” (NISSAN CHEMICAL CORPORATION, priority 2019, published 2023).

Tests used:
redroot pigweed [1] = test: Test Example 4: herbicidal effect by soil treatment (Table 19, symbol N); type: in vivo, redroot pigweed (Amaranthus retroflexus); conditions: amount of applied herbicide 320 g/ha
Method in brief: (§1)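 In this soil treatment, the formulated compound reached the seeds only through the soil: seeds were buried about 1.5 cm deep in sterilized diluvial soil, then the diluted emulsion was sprayed over the surface. After three weeks at 25° C. to 30° C. in a greenhouse, effects were graded on criteria from an earlier test.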

Japanese bulrush [2] = test: Test Example 2: herbicidal activity, application during weed generation under submerged conditions (Table 17, symbol B); type: in vivo, Japanese bulrush (Schoenoplectus juncoides); conditions: AAH 320 g/ha; application during weed generation, submerged conditions
Method in brief: (§2)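 Effect on each weed is rated three weeks post-treatment, using the same scoring criteria as the preceding test. Plants grow from mixed-sown seed in flooded alluvial soil (4 cm water) at 25° C. to 30° C., and are treated at one to two leaves with diluted emulsion dropped onto the water.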

wild oat [3] = test: Test Example 5: herbicidal effect by foliage application, plastic box (Table 20, symbol I); type: in vivo, wild oat (Avena fatua); conditions: foliage application, 320 g/ha, three weeks after application
Method in brief: (§3)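 Plants were sown into sterilized diluvial soil under about 1.5 cm cover and kept in a greenhouse at 25° C. to 30° C. Fourteen days on, foliage received an even spray of the diluted emulsion. Herbicidal or crop effect was judged three weeks afterwards.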

green foxtail = test: Test Example 5: herbicidal effect by foliage application, plastic box (Table 20, symbol G); type: in vivo, green foxtail (Setaria viridis); conditions: foliage application, 320 g/ha, three weeks after application
Method in brief: as §3

chickweed = test: Test Example 5: herbicidal effect by foliage application, plastic box (Table 20, symbol P); type: in vivo, common chickweed (Stellaria media); conditions: foliage application, 320 g/ha, three weeks after application
Method in brief: as §3

southern crabgrass = test: Test Example 4: herbicidal effect by soil treatment (Table 19, symbol F); type: in vivo, southern crabgrass (Digitaria ciliaris); conditions: amount of applied herbicide 320 g/ha
Method in brief: as §1

Italian ryegrass = test: Test Example 4: herbicidal effect by soil treatment (Table 19, symbol K); type: in vivo, Italian ryegrass (Lolium multiflorum); conditions: amount of applied herbicide 320 g/ha
Method in brief: as §1

oval-leafed pondweed = test: Test Example 2: herbicidal activity, application during weed generation under submerged conditions (Table 17, symbol C); type: in vivo, oval-leafed pondweed (Monochoria vaginalis); conditions: AAH 320 g/ha; application during weed generation, submerged conditions
Method in brief: as §2

wild oat [4] = test: Test Example 4: herbicidal effect by soil treatment (Table 19, symbol I); type: in vivo, wild oat (Avena fatua); conditions: amount of applied herbicide 320 g/ha
Method in brief: as §1

blackgrass [5] = test: Test Example 4: herbicidal effect by soil treatment (Table 19, symbol J); type: in vivo, blackgrass (Alopecurus myosuroides); conditions: amount of applied herbicide 320 g/ha
Method in brief: as §1

barnyard grass [6] = test: Test Example 5: herbicidal effect by foliage application, plastic box (Table 20, symbol H); type: in vivo, barnyard grass (Echinochloa crus-galli); conditions: foliage application, 320 g/ha, three weeks after application
Method in brief: as §3

false cleavers [7] = test: Test Example 5: herbicidal effect by foliage application, plastic box (Table 20, symbol Q); type: in vivo, false cleavers (Galium spurium); conditions: foliage application, 320 g/ha, three weeks after application
Method in brief: as §3

late watergrass = test: Test Example 1: herbicidal activity, application before weed generation under submerged conditions (Table 16, symbol A); type: in vivo, late watergrass (Echinochloa oryzicola); conditions: amount of applied herbicide 320 g/ha
Method in brief: (§4)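 Submerged Wagner pots (alluvial soil, 4 cm water) sown with weed seeds and planted with 2.5-leaf rice seedlings; emulsifiable concentrate diluted in water applied to water surface on sowing day. Held in greenhouse at 25-30 °C; injury scored 0-5 by herbicidal rate after three weeks.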

redroot pigweed [8] = test: Test Example 5: herbicidal effect by foliage application, plastic box (Table 20, symbol N); type: in vivo, redroot pigweed (Amaranthus retroflexus); conditions: foliage application, 320 g/ha, three weeks after application
Method in brief: as §3

false cleavers [9] = test: Test Example 4: herbicidal effect by soil treatment (Table 19, symbol Q); type: in vivo, false cleavers (Galium spurium); conditions: amount of applied herbicide 320 g/ha
Method in brief: as §1

blackgrass [10] = test: Test Example 5: herbicidal effect by foliage application, plastic box (Table 20, symbol J); type: in vivo, blackgrass (Alopecurus myosuroides); conditions: foliage application, 320 g/ha, three weeks after application
Method in brief: as §3

barnyard grass [11] = test: Test Example 4: herbicidal effect by soil treatment (Table 19, symbol H); type: in vivo, barnyard grass (Echinochloa crus-galli); conditions: amount of applied herbicide 320 g/ha
Method in brief: as §1

Japanese bulrush [12] = test: Test Example 1: herbicidal activity, application before weed generation under submerged conditions (Table 16, symbol B); type: in vivo, Japanese bulrush (Schoenoplectus juncoides); conditions: amount of applied herbicide 320 g/ha
Method in brief: as §4

Row | Structure (SMILES) | N: redroot pigweed, herbicidal effect grade (redroot pigweed [1]) | herbicidal effect rating, B: Japanese bulrush (Japanese bulrush [2]) | I: wild oat, herbicidal effect grade (wild oat [3]) | G: green foxtail, herbicidal effect grade (green foxtail) | P: chickweed, herbicidal effect grade (chickweed) | F: southern crabgrass, herbicidal effect grade (southern crabgrass) | K: Italian ryegrass, herbicidal effect grade (Italian ryegrass) | herbicidal effect rating, C: oval-leafed pondweed (oval-leafed pondweed) | I: wild oat, herbicidal effect grade (wild oat [4]) | J: blackgrass, herbicidal effect grade (blackgrass [5]) | H: barnyard grass, herbicidal effect grade (barnyard grass [6]) | Q: false cleavers, herbicidal effect grade (false cleavers [7]) | Herbicidal effect, A: late watergrass (late watergrass) | N: redroot pigweed, herbicidal effect grade (redroot pigweed [8]) | Q: false cleavers, herbicidal effect grade (false cleavers [9]) | J: blackgrass, herbicidal effect grade (blackgrass [10]) | H: barnyard grass, herbicidal effect grade (barnyard grass [11]) | Herbicidal effect, B: Japanese bulrush (Japanese bulrush [12])
1 | CCCC(=O)Oc1c(C)nn(C)c(=O)c1-c1c(-c2ccccc2)sc2cc(OC)ccc12 [3-062] | 0 (Herbicidal rate of 5% or less (almost no effect)) | 3 (Herbicidal rate of 40% or more and less than 70%) | 2 (Herbicidal rate of 20% or more and less than 40%) | 0 (Herbicidal rate of 5% or less (almost no effect)) | 5 (Herbicidal rate of 90% or more (almost completely withered)) | 0 (Herbicidal rate of 5% or less (almost no effect)) | 0 (Herbicidal rate of 5% or less (almost no effect)) | 3 (Herbicidal rate of 40% or more and less than 70%) | 0 (Herbicidal rate of 5% or less (almost no effect)) | 0 (Herbicidal rate of 5% or less (almost no effect)) | 0 (Herbicidal rate of 5% or less (almost no effect)) | 4 (Herbicidal rate of 70% or more and less than 90%) | 3 (Herbicidal rate of 40% or more and less than 70%) | 2 (Herbicidal rate of 20% or more and less than 40%) | 2 (Herbicidal rate of 20% or more and less than 40%) | 0 (Herbicidal rate of 5% or less (almost no effect)) | 0 (Herbicidal rate of 5% or less (almost no effect)) | 4 (Herbicidal rate of 70% or more and less than 90%)
2 | CCCC(=O)Oc1c(C)nn(C)c(=O)c1-c1c(-c2ccc(OC)cc2)sc2cc(OC)ccc12 [3-069] | 0 (Herbicidal rate of 5% or less (almost no effect)) | 3 (Herbicidal rate of 40% or more and less than 70%) | 0 (Herbicidal rate of 5% or less (almost no effect)) | 0 (Herbicidal rate of 5% or less (almost no effect)) | 5 (Herbicidal rate of 90% or more (almost completely withered)) | 0 (Herbicidal rate of 5% or less (almost no effect)) | 0 (Herbicidal rate of 5% or less (almost no effect)) | 4 (Herbicidal rate of 70% or more and less than 90%) | 0 (Herbicidal rate of 5% or less (almost no effect)) | 0 (Herbicidal rate of 5% or less (almost no effect)) | 2 (Herbicidal rate of 20% or more and less than 40%) | 4 (Herbicidal rate of 70% or more and less than 90%) | 0 (Herbicidal rate of 5% or less (almost no effect)) | 5 (Herbicidal rate of 90% or more (almost completely withered)) | 0 (Herbicidal rate of 5% or less (almost no effect)) | 0 (Herbicidal rate of 5% or less (almost no effect)) | 0 (Herbicidal rate of 5% or less (almost no effect)) | 3 (Herbicidal rate of 40% or more and less than 70%)
